Measured values reported in patent US6699681B2, “Endothelin converting enzymes and the amyloid β peptide” (Mayo Foundation for Medical Education and Research, priority 2000, dated 2004).

Key:
H4 neuroglioma cells = settings: reported; cited from earlier work
[1] = test system: Aβ concentration in plasma; experiment: Treatment of guinea pigs with phosphoramidon, plasma Aβ by sandwich ELISA; format: in vivo, guinea pig; settings: guinea pigs treated intravenously
Description: Animal experiments were conducted within the United States Department of Agriculture (USDA) and the National Institute of Health (NIH) guidelines for animal use and care. To prevent clotting and to facilitate the collection of plasma, each animal was given 100 USP units/kg heparin sodium salt (Sigma, St. Louis, Mo.) administered intraperitoneally (IP) prior to experimentation. Animals were anesthetized with a single IP injection of 0.9 mg/kg acepromazine maleate (Fermenta, Kansas City, Mo.) combined with 90 mg/kg Ketaset (Fort Dodge Laboratories, Fort Dodge, Iowa). […] During the entire operation, the animal's temperature was periodically monitored and anesthesia maintained by further intraperitoneal injections as necessary. […] Data was obtained from at least 2 animals, with the Aβ in each sample measured at least twice.
Human and guinea pig Aβ40 or Aβ42 was measured in plasma by sandwich ELISA as previously described (Suzuki et al., 1994, Science, 264:1336-1340) using the BAN-50/BA-27 or BAN-50/BC-05 antibody systems, respectively (Takeda; Japan). Hamster Aβ40- or Aβ42-derived from CHO cells was measured using the BNT-77/BA-27 or BNT-77/BC-05 antibody systems, respectively. Aβ concentration in samples was determined by comparison to synthetic Aβ40 or Aβ42 standards (Bachem, Switzerland). […]

neuronal cell lines = settings: previously shown; cited from earlier work

SMILES: CC(C)C[C@H](NP(=O)(O)O[C@@H]1O[C@@H](C)[C@H](O)[C@@H](O)[C@H]1O)C(=O)N[C@@H](Cc1c[nH]c2ccccc12)C(=O)O [phosphoramidon]
- extracellular Aβ concentration (H4 neuroglioma cells): significant increase
- Aβ concentration in the plasma [1]: dose-dependent, rapid increase
- increase in the concentration of Aβ40 and Aβ42 in the conditioned medium (neuronal cell lines): 2- to 3 fold
